Data from PubChem BioAssay (NCI).
Values joined by “and” are separate entries in the source; they are usually repeats but may differ in a detail not shown here. Equal entries are not always repeated.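 48-hour exposure; five concentrations; linearly interpolated endpoints. GI50: concentration for 50% inhibition of growth. Definition used: TGI = concentration required for complete inhibition of growth.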

What was measured:
Test in all cases: NCI tumour cell line growth inhibition, 48 h
[1] = test system: IGROV1 ovarian
[2] = test system: NCI-H226 lung
[3] = test system: UACC-257 melanoma
[4] = test system: ACHN renal
[5] = test system: SNB-75 CNS
[6] = test system: HCT-15 colon
[7] = test system: K-562 leukemia
[8] = test system: COLO 205 colon
[9] = test system: DU-145 prostate
[10] = test system: NCI-H522 lung

SMILES	TGI [1] [µM]	TGI [2] [µM]	TGI [3] [µM]	TGI [4] [µM]	TGI [5] [µM]	TGI [6] [µM]	TGI [7] [µM]	TGI [8]	TGI [9] [µM]	GI50 [10] [µM]	TGI [10]	GI50 [4] [µM]	GI50 [8] [µM]
O=S(=O)(O)c1c(Cl)cc(O)c2ncccc12	> 100	> 100	> 100	> 100	> 100	> 100	> 100	> 100 µM	> 100	–	–	–	–
CC[C@]1(O)C[C@H]2CN(CCc3c([nH]c4ccccc34)[C@@](C(=O)OC)(c3cc4c(cc3OC)N(C=O)[C@H]3[C@@](O)(C(=O)OC)[C@H](OC(C)=O)[C@]5(CC)C=CCN6CC[C@]43[C@@H]65)C2)C1	–	–	–	–	–	–	–	0.0463 µM and 0.22 µM	–	0.00705	0.226 µM and 0.143 µM	0.00846	0.00159
Cc1cccc(C(C)C)c1NC(=O)C(=O)CC(=O)c1sc(Nc2ccccc2Cl)nc1C	> 100	–	> 100	> 100	> 100	> 100	–	> 100 µM	> 100	–	> 100 µM	–	–
O=c1cc(NCCCCCO)[nH]c(=O)[nH]1	> 100	> 100	> 100	> 100	> 100	> 100	> 100	> 100 µM	–	–	> 100 µM	–	–
COc1ccc(/C=C2\CCC(C)C3=C(c4ccc(OC)c(OC)c4)C(C#N)=C(N)OC32)cc1OC (stereo not given)	9.45	9.83	37	> 100	8.63	38	> 100	7.74 µM	> 100	–	–	–	–
C=CCn1c(=O)c2ccccc2[n+]2c(C)c(C(=O)OCC)sc12	> 100	> 100	> 100	> 100	–	> 100	> 100	> 100 µM	> 100	–	> 100 µM	–	–
COc1ccc(C2=CC(c3ccccc3)n3nnnc3N2)cc1 (stereo not given)	> 100	> 100	> 100	> 100	–	> 100	> 100	> 100 µM	> 100	–	> 100 µM	–	–
O=C(O)c1cc2ccccc2c(N=Nc2ccccc2)c1O	> 100	–	30.5	69.5	36	> 100	> 100	47.2 µM	29.7	–	59.6 µM	–	–
CC1(C)CCC[C@@]2(C)C1CCC1(C)C(CCc3ccoc3)/C(=C/OS(=O)(=O)O)CCC12 (stereo not given in full) (tested in a mixture with another compound)	> 100	> 100	> 100	> 100	> 100	> 100	> 100	> 100 µM	–	–	–	–	–
Oc1ccc(-c2csc(NNC3=NC/C(=C/c4ccc5c(c4)OCO5)S3)n2)cc1O	65.3	> 100	> 100	> 100	38.9	> 100	–	> 100 µM	> 100	–	–	–	–
CCC(C)n1c(C)nc2c1C(=O)c1ccccc1C2=O (stereo not given)	> 100	> 100	93.8	> 100	> 100	> 100	> 100	> 100 µM	–	–	> 100 µM	–	–
CCC1=NC(N/N=C/c2ccco2)=N/C1=C\c1ccccc1O	93.1	> 100	> 100	> 100	–	42.7	> 100	> 100 µM	> 100	–	49.3 µM	–	–
Cc1ccccc1C(=O)c1c(O)c2c(c(O)c1Br)CCCC2	42.6	58.4	29.2	31.9	34.8	32.9	47.8	34.2 µM	–	–	23.4 µM	–	–
CCNC(C)Cc1ccccc1 (stereo not given)	> 100	> 100	> 100	> 100	> 100	> 100	> 100	> 100 µM	–	–	> 100 µM	–	–
COc1cc2c[n+](C)c3c4cc(OC)c(OC)cc4c(OC)cc3c2cc1OC	–	–	18.3	> 100	> 95.1	> 100	> 41.5	4.41 µM	> 65.3	–	2.03 µM	–	–
COc1cc(Cc2cc3c(c(C(=O)O)c2Br)OCO3)cc(OC)c1OC	> 100	> 100	> 100	> 100	> 100	> 100	> 100	> 100 µM	> 100	–	–	–	–
COc1ccc(Oc2cccc(/C=C3/C(=O)Nc4ccccc43)c2)cc1	20.9	–	27.8	23.8	28.3	21.8	7.63	14 µM	27.1	–	19.6 µM	–	–
